Converted amounts (≈) assume the structure as drawn. “And” between values parts separate entries of the source, which are not always exact repeats. Identical values can stand only once. Values belong to the compound of their own block, whether it stands above or below them.
Tests used:
Assay in all cases: ≥ marks a high value that may be exact or a test limit, other limits are often not marked, values filed in µg/mL are converted to µM
Candida albicans 08A802 = tested on: Candida albicans 08A802
[1] = tested on: Staphylococcus epidermidis
[2] = tested on: Pseudomonas aeruginosa ATCC 27853
Enterococcus faecalis = tested on: Enterococcus faecalis
[3] = tested on: Staphylococcus aureus 08A875
[4] = tested on: Bacillus subtilis ATCC 6633
[5] = tested on: Mycobacterium tuberculosis CAS3
[6] = tested on: Acinetobacter baumannii 1
[7] = tested on: Mycobacterium tuberculosis H37Rv
Escherichia coli = tested on: Escherichia coli
[8] = tested on: Candida albicans 08022710
[9] = tested on: Mycobacterium tuberculosis FYX
[10] = tested on: Staphylococcus aureus ATCC 25923
[11] = tested on: Candida albicans ATCC 10231
Pseudomonas aeruginosa = tested on: Pseudomonas aeruginosa
[12] = tested on: Acinetobacter baumannii ATCC 19606
[13] = tested on: Mycobacterium tuberculosis WXY
[14] = tested on: Escherichia coli ATCC 25922
[15] = tested on: Escherichia coli ATCC 35218
[16] = tested on: Candida albicans ATCC 2002
[17] = tested on: Staphylococcus aureus ATCC 6538
[18] = tested on: Salmonella enterica subsp. enterica serovar Enteritidis MH91989
Escherichia coli J2210 = tested on: Escherichia coli J2210
Escherichia coli JW0013 = tested on: Escherichia coli JW0013
[19] = tested on: Pseudomonas aeruginosa PAO1
Escherichia coli O157:H7 = tested on: Escherichia coli O157:H7
Escherichia coli JJ2487 = tested on: Escherichia coli JJ2487
[20] = tested on: Salmonella typhimurium SL1344
Escherichia coli MC1061 = tested on: Escherichia coli MC1061
Escherichia coli UB1005 = tested on: Escherichia coli UB1005
[21] = tested on: Escherichia coli O157:H7 CICC 21530
[22] = tested on: Salmonella enterica subsp. enterica serovar Pullorum C79-13
Escherichia coli K88 = tested on: Escherichia coli K88
[23] = tested on: Salmonella enterica subsp. enterica serovar Typhimurium ATCC 14028
[24] = tested on: Streptococcus agalactiae BNCC 185941
[25] = tested on: Staphylococcus aureus ATCC 29213
[26] = tested on: Lacticaseibacillus rhamnosus 1.9021
[27] = tested on: Lacticaseibacillus rhamnosus 1.0936
[28] = tested on: Staphylococcus aureus ATCC 43300
[29] = tested on: Salmonella enterica subsp. enterica serovar Choleraesuis CVCC 503
[30] = tested on: Lacticaseibacillus rhamnosus 8014
[31] = tested on: Staphylococcus epidermidis ATCC 12228
[32] = tested on: Lacticaseibacillus rhamnosus 1.0911
[33] = tested on: Staphylococcus aureus ATCC 49525
[34] = tested on: Porphyromonas gingivalis W50

MIC (Candida albicans 08A802): ≥ 72.4 µM
MIC [1]: ≥ 96.5 µM
MIC [2]: > 96.5 µM
MIC (Enterococcus faecalis): ≥ 72.4 µM
MIC [3]: ≥ 72.4 µM
MIC [4]: ≥ 72.4 µM
MIC [5]: 9.05 µM (≈ 18.8 µg/mL)
MIC [6]: ≥ 96.5 µM
MIC [7]: 9.05 µM (≈ 18.8 µg/mL)
MIC (Escherichia coli): > 96.5 µM and 72.4 µM
MIC [8]: ≥ 96.5 µM
MIC [9]: 9.05 µM (≈ 18.8 µg/mL)
MIC [10]: > 96.5 µM
MIC [11]: > 96.5 µM
MIC (Pseudomonas aeruginosa): > 96.5 µM
MIC [12]: 72.4 µM (≈ 150 µg/mL)
MIC [13]: 4.53 µM (≈ 9.38 µg/mL)
MIC [14]: > 96.5 µM
MIC [15]: ≥ 96.5 µM
MIC [16]: ≥ 96.5 µM
MIC [17]: > 96.5 µM
Compound: CC(C)C[C@H](NC(=O)[C@H](CC(C)C)NC(=O)[C@H](CCCCN)NC(=O)[C@H](CCCCN)NC(=O)[C@@H](NC(=O)[C@H](C)N)C(C)C)C(=O)N[C@@H](CCCN=C(N)N)C(=O)N[C@@H](Cc1c[nH]c2ccccc12)C(=O)N[C@@H](Cc1c[nH]c2ccccc12)C(=O)N[C@@H](CO)C(=O)N[C@@H](CCCN=C(N)N)C(=O)N[C@@H](Cc1c[nH]c2ccccc12)C(=O)N[C@@H](Cc1c[nH]c2ccccc12)C(=O)N[C@@H](CCCCN)C(=O)N[C@@H](CCCCN)C(=O)O [AVKKLLRWWSRWWKK]

MIC [18]: 0.248 µM (≈ 0.6 µg/mL)
MIC (Escherichia coli J2210): 0.161 µM (≈ 0.39 µg/mL)
MIC (Escherichia coli JW0013): 0.248 µM (≈ 0.6 µg/mL)
MIC [19]: 13.2 µM (≈ 32 µg/mL)
MIC (Escherichia coli O157:H7): 0.991 µM (≈ 2.4 µg/mL)
MIC (Escherichia coli JJ2487): 0.248 µM (≈ 0.6 µg/mL)
MIC [20]: 0.248 µM (≈ 0.6 µg/mL)
MIC (Escherichia coli MC1061): 0.124 µM (≈ 0.3 µg/mL)
MIC [10]: 9.34 µM (≈ 22.6 µg/mL)
MIC (Escherichia coli UB1005): 1.03 µM (≈ 2.5 µg/mL)
Compound: CC[C@H](C)[C@H](NC(=O)[C@H](CCCN=C(N)N)NC(=O)[C@H](CCCN=C(N)N)NC(=O)[C@@H]1CCCN1C(=O)[C@@H]1CCCN1C(=O)[C@H](CCCN=C(N)N)NC(=O)[C@@H]1CCCN1C(=O)[C@H](CCCN=C(N)N)NC(=O)[C@@H]1CCCN1C(=O)[C@H](CC(C)C)NC(=O)[C@H](Cc1ccc(O)cc1)NC(=O)[C@@H]1CCCN1C(=O)[C@H](CCCCN)NC(=O)[C@H](CCCCN)NC(=O)[C@H](CC(=O)O)NC(=O)[C@@H](N)C(C)C)C(=O)N[C@@H](Cc1ccc(O)cc1)C(=O)N[C@@H](CC(N)=O)C(=O)N[C@@H](CCCN=C(N)N)C(N)=O [VDKKPYLPRPRPPRRIYNR]

MIC [2]: 32 µM (≈ 41 µg/mL)
MIC [21]: ≥ 128 µM
MIC [22]: 8 µM (≈ 10.3 µg/mL)
MIC (Escherichia coli K88): 4 µM (≈ 5.13 µg/mL)
MIC [23]: 128 µM (≈ 164 µg/mL)
MIC [24]: ≥ 128 µM
MIC [19]: 16 µM (≈ 20.5 µg/mL)
MIC [25]: > 128 µM
MIC [26]: ≥ 128 µM
MIC [27]: ≥ 128 µM
MIC [28]: > 128 µM
MIC [30]: ≥ 128 µM
MIC [31]: > 128 µM
MIC [32]: ≥ 128 µM
Compound: CC(C)C[C@H](NC(=O)CNC(=O)[C@H](CCCCN)NC(=O)[C@H](Cc1c[nH]c2ccccc12)NC(=O)[C@H](CCCCN)NC(=O)CNC(=O)[C@H](CC(C)C)NC(=O)[C@H](CC(C)C)NC(=O)[C@@H](N)CCCCN)C(=O)N[C@@H](CC(C)C)C(=O)N[C@@H](CCCCN)C(N)=O [KLLGKWKGLLK]
MIC [29]: ≥ 128 µM

MIC [33]: ≥ 58.5 µM
MIC [19]: 5.61 µM and 7.3 µM
MIC [34]: ≥ 70.2 µM
Compound: CC[C@H](C)[C@H](NC(=O)[C@H](CCCCN)NC(=O)CN)C(=O)N[C@H](C(=O)N[C@@H](CCCCN)C(=O)N[C@@H](CC(C)C)C(=O)N[C@@H](CCCCN)C(=O)N[C@@H](C)C(=O)N[C@@H](CO)C(=O)N[C@@H](CC(C)C)C(=O)N[C@@H](CCCCN)C(=O)N[C@@H](CC(C)C)C(=O)N[C@@H](CC(C)C)C(N)=O)[C@@H](C)CC [GKIIKLKASLKLL]

Source: DBAASP
